Experiment in all cases: NCI-60 cell line screen, 48 h
In test [1] the test system is HCT-15 colon.
The test system of test [2] is KM12 colon.
Test [3] has as its system SNB-19 CNS.
The test system of test [4] is UO-31 renal.
The subject of test [5] is SF-539 CNS.
The test system of test [6] is COLO 205 colon.
Test [7] concerns U251 CNS.
The subject of test [8] is ACHN renal.
Test [9] deals with HOP-62 NSCLC.
In test [10] the test system is NCI-H226 lung.

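Where inhibition never reached the appropriate level, the endpoint shown equals the highest concentration tested. Otherwise, values were interpolated linearly from a five-concentration, 48-hour dose response in 96-well plates. GI50 is the concentration that inhibits growth by half. Definition used: TGI = concentration required for complete inhibition of growth.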

For `Fc1ccc(-c2ncn(C3CCNCC3)c2-c2ccnc(Oc3cccc(F)c3)n2)cc1`, the GI50 is > 18 µM in test [1]; 13.6 µM in [2]; > 25 µM in test [3]; 6.77 µM in test [4]; 10.7 µM in test [5]; 5.09 µM in [6]. For the same compound, the GI50 is 9.74 µM in test [7], 8.58 µM in test [8] and > 21.8 µM in test [9]. The TGI is > 25 µM in [1]; > 25 µM in [2]; > 25 µM in [3]; > 25 µM in test [4]; > 25 µM in [5]; 9.67 µM in test [6]. The TGI in [7], in test [8] and in [9] was > 25 µM throughout.

As to `CC(=O)OC1CCC2(C)C(=CC(C3C=C4CC(OC(C)=O)CCC4(C)C4=C3C3CC5OC6(CCC(C)CO6)C(C)C5C3(C)CC4)C3=C2CCC2(C)C3CC3OC4(CCC(C)CO4)C(C)C32)C1` (stereo not drawn), the TGI in test [1] stood at 28.4 µM; in test [2] it was 35.7 µM; in test [3], 30.4 µM; in [4], 28.9 µM; in [10], 41.5 µM; in [6], 36.1 µM. Moreover, the TGI in [7] is 27.8 µM; in test [8] it was 29.2 µM; in test [9], 32.5 µM.

Regarding `COc1ccc(C2S/C(=C\c3ccc(OC)cc3OC)C(=O)N2NC(=O)Cc2ccccc2)cc1` (stereo not drawn), the TGI in [1], in test [2], in test [4], in [5], in [10] and in test [6] was > 100 µM each time. The TGI in [7], in test [8] and in test [9] was > 100 µM throughout.

With `Cc1ccc(N2C(=O)/C(=C3\Sc4c(nc(C)[nH]c4=O)N3c3ccccc3)SC2=S)cc1`, the TGI is > 100 µM in test [1]; > 100 µM in test [3]; 92.1 µM in test [4]; 29.5 µM in [5]; 86.6 µM in test [10]; > 100 µM in [6]. Moreover, the TGI was 37.9 µM in test [7], > 100 µM in [8] and 25.9 µM in test [9].

Turning to `COC1=C(OC)CCC(/C(C#N)=C/c2ccc(OC)c(OC)c2)=C1`, the TGI in test [1], in [2], in test [4], in test [5], in test [10] and in test [6] was > 100 µM throughout. In addition, the TGI in test [7] is > 100 µM; in [8], > 100 µM; in test [9], 86.9 µM.

In the case of `Cc1ccc(Nc2ccc(Nc3ccc(C)cc3)c3c2C(=O)c2c(O)ccc(O)c2C3=O)cc1`, the TGI in test [1], in test [2], in [3], in test [4], in test [5] and in test [6] was > 100 µM each time. Moreover, the TGI in [7], in test [8] and in [9] was > 100 µM in each case.

`CCNCC(O)c1ccc(N)c([N+](=O)[O-])c1` (stereo not drawn): the TGI in test [1], in [3], in test [4], in test [5], in [10] and in test [6] was > 100 µM throughout. Also, the TGI in test [7], in test [8] and in test [9] was > 100 µM each time.

On to `O=C(/C=C/c1cccc(Cl)c1)c1ccc(Cl)cc1Cl`, for which the GI50 is 12.2 µM in test [1]; 9.76 µM in [2]; 7.42 µM in test [3]; 11.4 µM in test [4]; 12.6 µM in [5]; 12.2 µM in [6]. The GI50 in test [7] is 8.37 µM; in test [8], 15.3 µM; in [9] it was 17.4 µM. The TGI in test [1] was > 50 µM; in [2], 21.6 µM; in test [3], 17.1 µM; in test [4], 25.8 µM; in test [5], 28 µM; in [6], 40.6 µM. For the same compound, the TGI in test [7] is 21.1 µM; in [8], 38.4 µM; in [9], > 50 µM.

Regarding `COc1ccc(O)c2c1C(=O)CCCC2=O`, the TGI in test [1], in [2], in test [3], in test [4], in [5] and in test [6] was > 100 µM each time. Further, the TGI in [7], in [8] and in test [9] was > 100 µM each time.

In the case of `O=c1cccccc1NCCCCNc1cccccc1=O`, the TGI in test [1], in test [2], in test [3], in test [4], in test [10] and in [6] was > 100 µM throughout. The TGI in test [7], in test [8] and in test [9] was > 100 µM each time.

Take `CC(=O)Oc1cccc2c1C(=O)c1c(OC(C)=O)cc(C)cc1C2=O`: the TGI in test [1], in test [2], in test [3], in test [5], in test [10] and in test [6] was > 100 µM throughout. Also, the TGI in test [7], in test [8] and in test [9] was > 100 µM throughout.

On to `CCOC(=O)C(C)(C)Oc1ccc2c(-c3ccc(Cl)cc3)cc(=O)oc2c1`, for which the TGI in [1], in test [3], in test [4], in [5], in [10] and in test [6] was > 100 µM each time. Besides, the TGI in test [7], in [8] and in test [9] was > 100 µM each time.

`CCOC(=O)C12CC1(C(=O)OCC)C1CCC2C1` (stereo not drawn): the TGI in test [1], in test [3], in test [4], in [10], in test [6] and in test [7] was > 100 µM in each case. The TGI in test [8] and in test [9] was > 100 µM in each case.

For the compound `CC(C)C(N)(C(=O)O)c1ccccc1` (stereo not drawn), the TGI in [1], in [2], in test [3], in test [4], in [10] and in test [6] was > 100 µM each time. Moreover, the TGI in test [7], in test [8] and in [9] was > 100 µM each time.

(Values after PubChem BioAssay (NCI).)
